Assay results: the NIST ThermoML archive (doi:10.1021/je500389t)

Test: xn = mol fraction of the nth substance listed
Settings: 101 kPa, Liquid; for viscosity: Capillary tube (Ostwald / Ubbelohde) method; for mass density: Pycnometric method

COCCOCCOC [2,5,8-trioxanonane] + O
Settings | mass density, 293.15 K [kg/m3] | mass density, 298.15 K [kg/m3] | mass density, 303.15 K [kg/m3] | mass density, 308.15 K [kg/m3] | mass density, 313.15 K [kg/m3] | viscosity, 293.15 K [mPa·s] | viscosity, 298.15 K [mPa·s] | viscosity, 303.15 K [mPa·s] | viscosity, 308.15 K [mPa·s] | viscosity, 313.15 K [mPa·s]
x1 = 0.0147 | 1000.9 | 998.8 | 997.5 | 995.3 | 994.3 | 1.39 | 1.22 | 1.06 | 0.939 | 0.865
x1 = 0.0325 | 1004.6 | 1002.7 | 1000.2 | 998.1 | 995.2 | 1.9 | 1.66 | 1.41 | 1.23 | 1.09
x1 = 0.0548 | 1008.4 | 1005.5 | 1002.4 | 999.6 | 995.9 | 2.56 | 2.2 | 1.82 | 1.576 | 1.41
x1 = 0.0822 | 1010.3 | 1006.8 | 1003.1 | 999.7 | 995.8 | 3.21 | 2.73 | 2.22 | 1.91 | 1.7
x1 = 0.1183 | 1009.2 | 1004.8 | 1000.3 | 996.5 | 992.1 | 3.65 | 3.1 | 2.51 | 2.13 | 1.88
x1 = 0.1676 | 1003.2 | 998.7 | 994.1 | 990.1 | 985.4 | 3.63 | 3.09 | 2.53 | 2.14 | 1.9
x1 = 0.2384 | 993.6 | 988.3 | 983.9 | 979.3 | 974.5 | 3.12 | 2.7 | 2.24 | 1.92 | 1.72
x1 = 0.2866 | 987.3 | 982 | 977.5 | 973.2 | 968 | 2.75 | 2.42 | 2.01 | 1.75 | 1.58
x1 = 0.3468 | 980.1 | 974.9 | 970.4 | 965.6 | 960.8 | 2.36 | 2.1 | 1.77 | 1.5 | 1.42
x1 = 0.4495 | 970.7 | 965.4 | 960.9 | 956.2 | 951.1 | 1.97 | 1.77 | 1.47 | 1.31 | 1.21
x1 = 0.5426 | 963.6 | 958.5 | 953.8 | 949.2 | 943.8 | 1.61 | 1.47 | 1.27 | 1.14 | 1.06
x1 = 0.699 | 955.5 | 950.2 | 945.4 | 941 | 935.7 | 1.32 | 1.2 | 1.08 | 1 | 0.941
x1 = 0.7996 | 951.2 | 945.9 | 941.2 | 936.4 | 931.4 | 1.21 | 1.11 | 0.997 | 0.902 | 0.851
x1 = 0.8928 | 948.3 | 942.9 | 938.1 | 933.3 | 928.2 | 1.14 | 1.05 | 0.955 | 0.862 | 0.817
x1 = 1 | 945.2 | 939.8 | 935 | 930.7 | 925.4 | 1.09 | 0.998 | 0.914 | 0.834 | 0.785
